# Structures can show the parent of a compound that is named as a salt. Where two headings read alike, the source gives them in different places.
# T1: zebrafish Mate3 (Danio rerio, UniProt A1L1P9)
# T1 sequence (A1L1P9 1-590): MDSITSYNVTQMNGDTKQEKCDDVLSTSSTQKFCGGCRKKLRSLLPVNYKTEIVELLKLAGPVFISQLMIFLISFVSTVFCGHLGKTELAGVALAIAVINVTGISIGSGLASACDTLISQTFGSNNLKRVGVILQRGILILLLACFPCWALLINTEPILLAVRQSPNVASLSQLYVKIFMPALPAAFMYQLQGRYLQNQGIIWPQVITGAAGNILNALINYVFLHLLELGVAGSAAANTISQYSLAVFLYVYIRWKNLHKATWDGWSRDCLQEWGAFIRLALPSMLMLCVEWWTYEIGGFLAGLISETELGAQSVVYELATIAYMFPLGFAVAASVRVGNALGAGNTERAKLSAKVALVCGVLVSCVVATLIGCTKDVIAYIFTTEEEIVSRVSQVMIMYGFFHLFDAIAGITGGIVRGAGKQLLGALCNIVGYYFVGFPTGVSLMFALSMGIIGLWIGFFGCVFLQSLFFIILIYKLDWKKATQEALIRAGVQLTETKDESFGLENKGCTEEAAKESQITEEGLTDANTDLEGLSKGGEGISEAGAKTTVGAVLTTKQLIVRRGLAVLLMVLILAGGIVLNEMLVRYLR
# Assays:
# zebrafish Mate7 = zebrafish Mate7 (Danio rerio, UniProt U3PTD6); assay: DAPI inhibition assay, Mate7; assay type: cell-based; settings: for interaction strength: class by IC50 of DAPI uptake inhibition; for interaction with DAPI uptake (in words): co-incubation with modulator (50 μM–2 mM), Fig. 5
# Experimental: (§1) HEK293T cells were transiently transfected as described previously[31] using the PEI (polyethyleneimine) reagent in 48-well plates. Cells were in parallel transfected with pcDNA3.1/His/LacZ plasmid and transfection efficiency was evaluated 24 h after transfection with the LacZ staining protocol.
# (§2) HEK293T cells overexpressing respective single zebrafish Mate transporter were used for further experiments. […] DAPI fluorescence was measured at 360 and 460 nm […], respectively. The uptake into vector-transfected HEK293T cells (mock cells) was subtracted to obtain transporter-specific uptake.
# (§3) Inhibition assays using DAPI as a fluorescent substrate were performed in the same transport medium. […] Compounds tested for interaction were checked using at least four concentrations but only a representative concentration (with the highest response or the largest concentration in solubility range) is shown.
# (§4) For the purpose of IC50 calculations, data were fitted to the sigmoidal four-parameter dose-response model (variable slope),
# zebrafish Mate8 = zebrafish Mate8 (Danio rerio, UniProt A0A8M6YZ09); assay: DAPI inhibition assay, Mate8; assay type: cell-based; settings: for interaction strength: class by IC50 of DAPI uptake inhibition; for interaction with DAPI uptake (in words): co-incubation with modulator (50 μM–2 mM), Fig. 5
# Experimental: as §1, §2, §3, §4
# zebrafish Mate4 = zebrafish Mate4 (Danio rerio, UniProt U3Q0C3); assay: DAPI inhibition assay, Mate4; assay type: cell-based; settings: for interaction with DAPI uptake (in words): co-incubation with modulator (50 μM–2 mM), Fig. 5
# Experimental: as §1, §2, §3, §4
# zebrafish Mate6 = zebrafish Mate6 (Danio rerio, UniProt A1L2E7); assay: DAPI inhibition assay, Mate6; assay type: cell-based; settings: for interaction strength: class by IC50 of DAPI uptake inhibition; for interaction with DAPI uptake (in words): co-incubation with modulator (50 μM–2 mM), Fig. 5
# Experimental: as §1, §2, §3, §4
# zebrafish Mate3 = molecular target: T1, zebrafish Mate3; assay: DAPI inhibition assay, Mate3; assay type: cell-based; set-up: expressed in transfected cells; host or cells: HEK293T; settings: for interaction with DAPI uptake (in words): Mate3, co-incubation with modulator (50 μM–2 mM), Fig. 5
# Experimental: as §1, §2, §3, §4
# [1] = system: CC[n+]1c(-c2ccccc2)c2cc(N)ccc2c2ccc(N)cc21; assay: cells, lysate or membranes; settings: dye uptake, HEK293T, mean ± SD
# Experimental: (§5) Calibration curves for all substrates were generated in 0.1% SDS and in the cell matrix dissolved in 0.1% SDS. Resulting linear calibration curves were the same in the SDS and in the dissolved cell matrix. Using the calibration curves, uptake was expressed as pmol of substrate per mg of protein per minute. Total cell protein content was determined according to the Bradford method[33].
# (§6) All assays were performed in 3–5 independent experiments run in triplicates. […] All calculations were performed using GraphPad Prism 5.00 for Windows (GraphPad Software, San Diego, California, USA) as described below. The kinetic parameters, Km and Vmax values were calculated using the Michaelis-Menten equation,
# (§7) where V is velocity (picomoles of substrate per milligram of proteins per minute), Vmax is maximal velocity, [S] is substrate concentration and Km is the Michaelis Menten constant.
# [2] = substrate: CN(C)c1ccc(/C=C/c2cc[n+](C)cc2)cc1; assay: cells, lysate or membranes; settings: dye uptake, HEK293T, mean ± SD, NT = no transport found
# Experimental: as §5, §6, §7
# [3] = substrate: COC(=O)c1ccccc1-c1c2ccc(=N)cc-2oc2cc(N)ccc12; assay: cells, lysate or membranes; settings: dye uptake, HEK293T, mean ± SD, NT = no transport found
# Experimental: as §5, §6, §7
# [4] = Mate7, inhibition of DAPI (2.5 μM) uptake, n = 3, NE = no effect in the compound solubility range, read-out: IC50
# [5] = Mate4, inhibition of DAPI (1 μM) uptake, n = 3, NE = no effect in the compound solubility range, read-out: IC50
# [6] = other: Mate4, NT = no transport found
# [7] = other: Mate8, NT = no transport found
# Sequence of zebrafish Mate7 (U3PTD6 entry or part of it): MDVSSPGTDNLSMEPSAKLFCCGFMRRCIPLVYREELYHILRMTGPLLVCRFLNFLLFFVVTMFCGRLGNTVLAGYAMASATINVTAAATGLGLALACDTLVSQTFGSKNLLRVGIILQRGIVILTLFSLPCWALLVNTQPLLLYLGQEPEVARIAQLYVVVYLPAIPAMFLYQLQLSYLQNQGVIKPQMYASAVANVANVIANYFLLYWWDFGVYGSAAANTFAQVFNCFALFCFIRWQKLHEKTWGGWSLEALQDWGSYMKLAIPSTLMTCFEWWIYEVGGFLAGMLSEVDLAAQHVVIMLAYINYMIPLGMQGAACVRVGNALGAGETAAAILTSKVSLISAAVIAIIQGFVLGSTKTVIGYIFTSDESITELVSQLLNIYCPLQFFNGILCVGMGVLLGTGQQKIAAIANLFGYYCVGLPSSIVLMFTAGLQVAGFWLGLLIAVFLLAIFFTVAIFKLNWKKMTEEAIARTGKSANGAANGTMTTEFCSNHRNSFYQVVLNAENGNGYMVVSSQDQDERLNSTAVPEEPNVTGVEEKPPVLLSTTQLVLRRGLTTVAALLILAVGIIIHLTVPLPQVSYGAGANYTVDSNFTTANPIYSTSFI
# Sequence of zebrafish Mate6 (A1L2E7 entry or part of it): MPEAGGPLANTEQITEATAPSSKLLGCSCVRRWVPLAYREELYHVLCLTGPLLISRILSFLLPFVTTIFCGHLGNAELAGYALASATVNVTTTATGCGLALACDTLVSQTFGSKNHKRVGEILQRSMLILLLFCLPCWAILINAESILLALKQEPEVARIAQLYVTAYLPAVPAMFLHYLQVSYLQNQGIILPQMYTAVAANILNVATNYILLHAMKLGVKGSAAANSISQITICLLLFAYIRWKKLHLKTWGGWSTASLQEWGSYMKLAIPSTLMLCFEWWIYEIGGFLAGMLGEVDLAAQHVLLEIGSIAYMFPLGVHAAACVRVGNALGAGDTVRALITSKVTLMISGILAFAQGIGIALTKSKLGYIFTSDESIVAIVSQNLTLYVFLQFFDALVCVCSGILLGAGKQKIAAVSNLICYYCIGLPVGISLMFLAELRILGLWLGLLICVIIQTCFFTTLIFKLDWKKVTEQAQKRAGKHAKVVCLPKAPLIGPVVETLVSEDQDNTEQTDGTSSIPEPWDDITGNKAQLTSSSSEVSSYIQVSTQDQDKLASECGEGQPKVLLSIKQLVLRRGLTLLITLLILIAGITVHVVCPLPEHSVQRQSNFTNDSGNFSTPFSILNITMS
molecule,measurement,setting,value
"C[C@H](CCC(=O)O)[C@H]1CC[C@H]2[C@@H]3CC[C@@H]4C[C@H](O)CC[C@]4(C)[C@H]3C[C@H](O)[C@]12C [Deoxycholate, deoxycholate]",IC50,zebrafish Mate7,203 µM
same,interaction strength,zebrafish Mate7; Mate7,weak (IC50 of 100–999 μM was classified as weak interaction)
same,IC50,zebrafish Mate8,274 µM
same,interaction strength,zebrafish Mate8; Mate8,weak (IC50 of 100–999 μM was classified as weak interaction)
"C[n+]1ccc(-c2cc[n+](C)cc2)cc1 [Paraquat, paraquat, reference compound]",interaction with DAPI uptake (in words),zebrafish Mate7; Mate7,too weak to determine the IC50
same,IC50,zebrafish Mate4,462 µM
same,IC50,zebrafish Mate8,6290 µM
same,interaction strength,zebrafish Mate8; Mate8,very weak (substances with IC50 above 1000 μM were considered very weak interactors)
same,IC50,zebrafish Mate6,5730 µM
"C[C@]12CC[C@H]3[C@@H](CCC4=CC(=O)CC[C@@]43C)[C@@H]1CC[C@@H]2O [Testosterone, testosterone]",IC50,zebrafish Mate3,669 µM
same,interaction with DAPI uptake (in words),zebrafish Mate3,inhibited
same,IC50,zebrafish Mate7,42 µM
same,interaction strength,zebrafish Mate7; Mate7,moderate (IC50 of 30–99 μM indicated moderate interaction)
same,interaction with DAPI uptake (in words),zebrafish Mate7; Mate7,inhibited
same,IC50,zebrafish Mate4,651 µM
same,interaction with DAPI uptake (in words),zebrafish Mate4; Mate4,inhibited
same,IC50,zebrafish Mate8,50.5 µM
same,interaction strength,zebrafish Mate8; Mate8,moderate (IC50 of 30–99 μM indicated moderate interaction)
same,interaction with DAPI uptake (in words),zebrafish Mate8; Mate8,inhibited
same,IC50,zebrafish Mate6,39 µM
same,interaction strength,zebrafish Mate6; Mate6,moderate (IC50 of 30–99 μM indicated moderate interaction)
same,interaction with DAPI uptake (in words),zebrafish Mate6; Mate6,inhibited
"C[C@]12CCC(=O)C=C1CC[C@@H]1[C@@H]2CC[C@]2(C)C(=O)CC[C@@H]12 [Androstenedione, androstenedione]",IC50,zebrafish Mate7,14.9 µM
same,interaction strength,zebrafish Mate7; Mate7,strong (Compounds with IC50 of 1–29 μM were designated as strong interactors)
same,IC50,zebrafish Mate4,114 µM
same,IC50,zebrafish Mate8,20.1 µM
same,interaction strength,zebrafish Mate8; Mate8,strong (Compounds with IC50 of 1–29 μM were designated as strong interactors)
same,IC50,zebrafish Mate6,25.3 µM
"CN(C)C(=N)N=C(N)N [metformin, reference compound]",interaction with DAPI uptake (in words),zebrafish Mate7; Mate7,did not interact
same,interaction with DAPI uptake (in words),zebrafish Mate4; Mate4,did not interact
same,interaction with DAPI uptake (in words),zebrafish Mate8; Mate8,did not interact
same,interaction with DAPI uptake (in words),zebrafish Mate6; Mate6,did not interact
"C[C@]12CC[C@H](OS(=O)(=O)O)CC1=CC[C@@H]1[C@@H]2CC[C@]2(C)C(=O)CC[C@@H]12 [DHEAS, dehydroepiandrosterone sulfate]",interaction strength,zebrafish Mate7; Mate7,moderate (IC50 of 30–99 μM indicated moderate interaction)
same,IC50,zebrafish Mate7; [4],60.2 µM
same,IC50,zebrafish Mate4; [5],313 µM
same,interaction strength,zebrafish Mate8; Mate8,strong (Compounds with IC50 of 1–29 μM were designated as strong interactors)
same,IC50,"zebrafish Mate8; Mate8, inhibition of DAPI (1 μM) uptake, n = 3, NE = no effect in the compound solubility range, read-out: IC50",26.9 µM
same,interaction strength,zebrafish Mate6; Mate6,moderate (IC50 of 30–99 μM indicated moderate interaction)
same,IC50,"zebrafish Mate6; Mate6, inhibition of DAPI (1 μM) uptake, n = 3, NE = no effect in the compound solubility range, read-out: IC50",39.1 µM
zebrafish Mate4 (Danio rerio),Km,[1]; [6],0.45 ± 0.08 µM
same,Vmax,[1]; [6],37.4 ± 2.02 pmol/mg protein/min
zebrafish Mate8 (Danio rerio),Km,[1]; [7],0.85 ± 0.12 µM
same,Vmax,[1]; [7],17.0 ± 0.59 pmol/mg protein/min
"CC[N+](CC)(CC)CC [TEA, tetraethylammonium, reference compound]",interaction with DAPI uptake (in words),zebrafish Mate3,did not interact
same,IC50,zebrafish Mate7; [4],3310 µM
same,IC50,zebrafish Mate4; [5],5240 µM
same,interaction with DAPI uptake (in words),zebrafish Mate8; Mate8,not inhibited
CN1CC(=O)NC1=N [creatinine],interaction with DAPI uptake (in words),zebrafish Mate3,did not interact
same,interaction with DAPI uptake (in words),zebrafish Mate7; Mate7,did not interact
same,interaction with DAPI uptake (in words),zebrafish Mate4; Mate4,did not interact
same,interaction with DAPI uptake (in words),zebrafish Mate8; Mate8,did not interact
same,interaction with DAPI uptake (in words),zebrafish Mate6; Mate6,did not interact
"C=C[C@H]1C[N@@]2CC[C@H]1C[C@@H]2[C@@H](O)c1ccnc2ccc(OC)cc12 [Quinidine, quinidine, reference compound]",IC50,zebrafish Mate3; read-out: IC50,58.4 µM
zebrafish Mate7 (Danio rerio),Km,[1]; other: Mate7,0.79 ± 0.19 µM
same,Vmax,[1]; other: Mate7,26.3 ± 1.82 pmol/mg protein/min
zebrafish Mate6 (Danio rerio),Km,[1]; other: Mate6,2.98 ± 0.18 µM
same,Vmax,[1]; other: Mate6,504 ± 9.79 pmol/mg protein/min
"C[C@]12C[C@H](O)[C@H]3[C@@H](CCC4=CC(=O)CC[C@@]43C)[C@@H]1CC[C@@H]2C(=O)CO [Corticosterone, corticosterone]",IC50,zebrafish Mate7,99.6 µM
same,interaction strength,zebrafish Mate7; Mate7,weak (IC50 of 100–999 μM was classified as weak interaction)
same,IC50,zebrafish Mate4,238 µM
same,IC50,zebrafish Mate8,22.1 µM
same,interaction strength,zebrafish Mate8; Mate8,strong (Compounds with IC50 of 1–29 μM were designated as strong interactors)
same,IC50,zebrafish Mate6,99.3 µM
same,interaction strength,zebrafish Mate6; Mate6,moderate (IC50 of 30–99 μM indicated moderate interaction)
zebrafish Mate4 (Danio rerio) (protein) MEMNSIHTEDHINGYQKEEKVEDAQLTSRSICAECLRKLRRLLPVNYKEEVMQLLKLAGPVFISQLMIFLISFVSTVFCGHLGKTELAGVALAIAVINVTGISIGSGLASACDTLISQTFGSNNLKRVGVILQRGILILLLACFPCWALLINTEPILLAVRQSPNVASLSQLYVKIFMPALPATFMYQLQGLYLQNQGIIWPQVITGAAGNILNALINYVFLYLLDLGVPGSAAANAISQYSLAVILYTYIRCMGLHKATWDGWSWDCLQEWGSFIRLALPSMLMLCAEWWTYEIGGFLAGLISEVELGAQSIVYELASVMYMFPLGFAVAAGVRVGNALGAGNTEQAKLSAKVSLVCGLLVSSVIAVVIAGTNNIIGYIFSKDEDIVLRVSQVMVMYGFVHLFDATSAITGGIVRGAGKQQIGALCNMVGYYCVGFPIGVSLMFAFNMGIVGLWIGFFTCVFLQSLFFIILIYRLDWKKATQEALIRAGVQLTEIKYESFGLENKGCTEEAAQENTEEGQTDTNTDLEGLSKGEGGITDAVALVTVGEVLTAKQLAVRRGLAFFFMLLILTGGIVLNEVLIRFVI,Km,[2]; other: Mate4,4.49 ± 0.63 µM
same,Vmax,[2]; other: Mate4,23.6 ± 1.23 pmol/mg protein/min
same,Km,[3]; other: Mate4,0.32 ± 0.03 µM
zebrafish Mate8 (Danio rerio) (protein) MDVSSPTTEASSMEPSTKLFCCRSVRRCIPLVYRQELYHILCMTGPLVASRILNYLLPFVITMFCGRLGNSVLAGYGMASATINITTAATGGGLALAADTLISQTFGGKNLRRVGIILQRSVLILLLFCLPCCALLINTQPILLLLRQDPEVARIAQLYVVCYLPAVPAMFLHQLQVAYLQNQGVILPQMYAGIAANVANVLTNYILLHWLELGVYGSAAANTISQIYICAFLYLYIRWKKLHVETWGGWSCDSLQEWDGYMKLAIPSTMMLCFEWWIYEVGGFLAGMLGELDLAAQHAVIMLAFINYMFPLGIQGAACVRVGNALGAGDTAGAIRTSKVSLTCTAALAVLQGLVLVSTKTVIGFLFTSDRHIVALVSKLLNVYCVLQFFDGLVCVSMGILLGSGQQKIAAVANFFGYYCIGLPLGTSLMFAAKLDVVGFWLGLLICVCVQSSFFIGVIFKFNWERVTKEAVERAGRTKISAMTAPDSITARHRENGDEYITVSAADPNVEPNATGVEEKPPVLLSTSQLVLRRGLTTLAALLILAGGITVHLIVPLPQMFYGAAANFTLNSNFTTPSSFIHSTSASL,Km,[2]; other: Mate8,2.34 ± 0.37 µM
same,Vmax,[2]; other: Mate8,22.2 ± 1.09 pmol/mg protein/min
same,Km,[3]; other: Mate8,0.88 ± 0.14 µM

# From paper PMC4928094, “The first characterization of multidrug and toxin extrusion (MATE/SLC47) proteins in zebrafish (Danio rerio)” (Scientific Reports, 2016)
